“And” between values parts separate entries of the source, which are not always exact repeats. Equal entries are not always repeated. Structures can show the parent of a compound that is named as a salt. Where two headings read alike, the source gives them in different places.
Key:
[1] = passive experiments; cited from earlier work
[2] = cited from earlier work
[3] = Method: Human cadaver skin epidermis was prepared by first separating skin from the underlying fat and then separating the epidermis by heat treatment at 60° C. for 90 seconds using standard techniques.
An apparatus as described in FIG. 6 was assembled, wherein each plate in the apparatus was a rectangular shape having dimensions of 5.030″ (127.76 mm) by 3.365″ (85.48 mm). The apparatus was assembled by first placing a ⅛″ (3.175 mm) thick clear polycarbonate spacer plate 620 on top of an aluminum base plate 610 and aligning screw holes 622 in the spacer plate with screw holes 612 in the base plate. Thereafter, a 4×4 sample array was created on spacer plate 620, as described in Table 2 below:
Punched samples were placed on spacer plate 620 in the 4×4 array of Table 2 one at a time, and the location of each array sample was selected using guide marks 614 on base plate 610 to ensure that each array sample was placed such that it aligned with a donor reservoir 654 in reservoir plate 650. There were 96, 0.020″ (0.508 mm) deep, guide marks 614 on base plate 610, arranged in a 12×8 array which was located 11.24 mm in from the edges of the long sides of base plate 610, and 14.38 mm in from the edges of its short sides. At the time of placement, the release liner on each sample was removed to expose the drug reservoir/adhesive of the sample.
Array locations B3, C1, and D3 were controls without any samples in order to determine the potential impact of lateral diffusion on transdermal transport measurements with this apparatus.
Once all the samples were placed in the array, the piece of heat-stripped human cadaver skin, the size of which was larger than the array of samples, was gently and slowly placed over the samples so as to avoid any air pockets between the skin and the samples. The skin was oriented with the stratum corneum next to the samples. Then, a ¼″ (6.35 mm) thick clear polycarbonate reservoir plate 650 having an 4×4 array of ¼″ (6.35 mm) diameter donor reservoirs 654 was placed over the skin such that all of screw holes 652 on reservoir plate 650 were aligned with the corresponding screw holes 622 of spacer plate 620.
The resulting assembled apparatus 600 was clamped together by sliding a shoulder screw 660 with threads 622 through aligned screw holes 652 at each of the four corners of the assembled apparatus, and tightening each shoulder screw 660 so as to form a seal between reservoir plate 650 and the skin.
[…] of Dulbecco's Phosphate Buffered Saline (PBS) was added to each donor reservoir in the array as the reservoir medium.
After 2 hours, a […] test aliquot of reservoir medium was removed from each donor reservoir 654, and at that time, an additional […] of PBS was added into each donor reservoir 654. Each of the 2-hour test aliquots was placed in an HPLC vial and diluted to […] by addition of […] of 50:50 (v/v) 50 mM potassium phosphate (adjusted to pH 3.0 with phosphoric acid) and acetonitrile.
The foregoing process was repeated at 3 hours, 4 hours, and 5 hours.
The components of the HPLC system used to analyze the test aliquots were a Waters 2790 Separations Module, a Waters Photodiode Array Detector Model 996, and Waters Millennium 32 v3.2 Chromatography Software (Waters Corp., Milford Mass.).
The HPLC analysis was performed using a Platinum EPS C18 column (Alltech Associates, Muskegan, Mich.) with dimensions of 250 mm×4.6 mm and a […] particle size. The mobile phase was 50:50 (v/v) 50 mM potassium phosphate (adjusted to pH 3.0 with phosphoric acid): acetonitrile, with a flow rate of 1.0 ml/minute. Detection was performed by measuring UV absorbance at a wavelength of 260 nm. The run time was 4 minutes. Injection volume was […]. Column temperature was ambient.

[4] = empty control location (B3, C1, D3), no sample: lateral diffusion, 2 hour
[5] = empty control location (B3, C1, D3), no sample: lateral diffusion, 3 hour
[6] = empty control location (B3, C1, D3), no sample: lateral diffusion, 4 hour
[7] = sample* (A4, D1): drug reservoir came off the backing with the release liner, 2 hour
[8] = sample* (A4, D1): drug reservoir came off the backing with the release liner, 3 hour
[9] = sample* (A4, D1): drug reservoir came off the backing with the release liner, 4 hour
[10] = sample* (A4, D1): drug reservoir came off the backing with the release liner, 5 hour

Compound: CCCCCCCC/C=C\CCCCCCCC(=O)OCC(COC(=O)CCCCCCC/C=C\CCCCCCCC)OC(=O)CCCCCCC/C=C\CCCCCCCC [glycerol trioleate]
- corticosterone flux enhancement relative to the passive flux from PBS alone [1]: 0.8

Compound: CCCc1nn(C)c2c(=O)[nH]c(-c3cc(S(=O)(=O)N4CCN(C)CC4)ccc3OCC)nc12 [sildenafil citrate]
- Properties: absorption / water solubility [2]: Poor absorption due to its low water

Compound: COC1=CC(=O)C[C@@H](C)[C@]12Oc1c(Cl)c(OC)cc(OC)c1C2=O [griseofulvin]
- Properties: absorption / water solubility [2]: Poor absorption due to its low water

Compound: CCCCCCCCCCCCCC(=O)OC(C)C [isopropyl myristate]
- corticosterone flux enhancement relative to the passive flux from PBS alone [1]: 5

Compound: CC(C)c1nc(CN(C)C(=O)N[C@H](C(=O)N[C@@H](Cc2ccccc2)C[C@H](O)[C@H](Cc2ccccc2)NC(=O)OCc2cncs2)C(C)C)cs1 [ritonavir]
- Properties: polymorphic stability ([2]; shipping and storage): Can undergo a polymorphic shift during

Compound: CN1CCCC1c1cccnc1 (centres unmarked) [Nicotine, nicotine]
- transdermal movement of the active component ([3]; detected in donor reservoirs over NICODERM CQ samples): crossed the skin barrier
- lateral diffusion to adjacent wells ([3]; donor reservoirs not located over samples): sufficiently slower than direct transdermal movement
- Nicotine Concentration Of Diluted Test Aliquots [3, 4]: 2.2 mg/mL and 1.5 mg/mL and 2.6 mg/mL
- Nicotine Concentration Of Original Test Aliquots [3, 4]: 22.0 mg/mL and 15.0 mg/mL and 26.0 mg/mL
- Nicotine Accumulation in donor reservoir ([3]; empty control location (B3, C1, D3), no sample: lateral diffusion, 2 hr): 1.650 mg and 1.125 mg and 1.950 mg
- Nicotine Concentration Of Diluted Test Aliquots [3, 5]: 2.5 mg/mL and 3.2 mg/mL and 4.0 mg/mL
- Nicotine Concentration Of Original Test Aliquots [3, 5]: 25.0 mg/mL and 32.0 mg/mL and 40.0 mg/mL
- Nicotine Accumulation in donor reservoir ([3]; empty control location (B3, C1, D3), no sample: lateral diffusion, 3 hr): 4.663 mg and 3.150 mg and 4.300 mg
- Nicotine Concentration Of Diluted Test Aliquots [3, 6]: 4.8 mg/mL and 2.7 mg/mL and 4.2 mg/mL
- Nicotine Concentration Of Original Test Aliquots [3, 6]: 48.0 mg/mL and 27.0 mg/mL and 42.0 mg/mL
- Nicotine Accumulation in donor reservoir ([3]; empty control location (B3, C1, D3), no sample: lateral diffusion, 4 hr): 7.075 mg and 4.375 mg and 6.450 mg
- Nicotine Accumulation in donor reservoir ([3]; empty control location (B3, C1, D3), no sample: lateral diffusion, 5 hr): 10.975 mg and 5.650 mg and 8.925 mg
- Nicotine Concentration Of Diluted Test Aliquots [3, 7]: 1.0 mg/mL and 1.1 mg/mL
- Nicotine Concentration Of Original Test Aliquots [3, 7]: 10.0 mg/mL and 11.0 mg/mL
- Nicotine Accumulation in donor reservoir ([3]; sample* (A4, D1): drug reservoir came off the backing with the release liner, 2 hr): 0.825 mg and 0.750 mg
- Nicotine Concentration Of Diluted Test Aliquots [3, 8]: 1.2 mg/mL and 1.4 mg/mL
- Nicotine Concentration Of Original Test Aliquots [3, 8]: 12.0 mg/mL and 14.0 mg/mL
- Nicotine Accumulation in donor reservoir ([3]; sample* (A4, D1): drug reservoir came off the backing with the release liner, 3 hr): 1.600 mg and 1.400 mg
- Nicotine Concentration Of Diluted Test Aliquots [3, 9]: 1.4 mg/mL and 1.6 mg/mL
- Nicotine Concentration Of Original Test Aliquots [3, 9]: 14.0 mg/mL and 16.0 mg/mL
- Nicotine Accumulation in donor reservoir ([3]; sample* (A4, D1): drug reservoir came off the backing with the release liner, 4 hr): 2.450 mg and 2.150 mg
- Nicotine Concentration Of Diluted Test Aliquots [3, 10]: 1.6 mg/mL and 1.8 mg/mL
- Nicotine Concentration Of Original Test Aliquots [3, 10]: 16.0 mg/mL and 18.0 mg/mL
- Nicotine Accumulation in donor reservoir ([3]; sample* (A4, D1): drug reservoir came off the backing with the release liner, 5 hr): 3.400 mg and 3.000 mg

Compound: polyethylene glycol 200 dilaurate
- corticosterone flux enhancement relative to the passive flux from PBS alone [1]: 2

Compound: CC(=O)O[C@H]1C(=O)[C@@]2(C)[C@H]([C@H](OC(=O)c3ccccc3)[C@]3(O)C[C@H](OC(=O)[C@H](O)[C@@H](NC(=O)c4ccccc4)c4ccccc4)C(C)=C1C3(C)C)[C@]1(OC(C)=O)CO[C@@H]1C[C@@H]2O [paclitaxel]
- Properties: absorption / water solubility [2]: Poor absorption due to its low water

Compound: CC(C)(C)NC(=O)[C@@H]1C[C@@H]2CCCC[C@@H]2CN1C[C@@H](O)[C@H](Cc1ccccc1)NC(=O)[C@H](CC(N)=O)NC(=O)c1ccc2ccccc2n1 [saquinavir]
- Properties: absorption / water solubility [2]: Poor absorption due to its low water

— patent US6852526B2, “Transdermal assay with magnetic clamp” (Transform Pharmaceuticals, Inc., priority 2000, dated 2005)
